IC50, CC50 and EC50 data for 11 compounds are collected here from patent US12252481B2, “Anti-viral compounds” (Aligos Therapeutics, Inc., priority 2021, dated 2025).

The target in data set [1] is T1, HRV3C (Human rhinovirus 14, UniProt P03303).
T1 construct: 3CLpro and HRV3C was added using a Multidrop Combi
Briefly: biochemical. Further details: species or system HRV.

The subject of data set [2] is HeLa cells.
The target of data set [3] is T2, human cathepsin L (Homo sapiens, UniProt P07711).
T2 construct: purchased R&D Systems
T2 sequence (P07711 114-333): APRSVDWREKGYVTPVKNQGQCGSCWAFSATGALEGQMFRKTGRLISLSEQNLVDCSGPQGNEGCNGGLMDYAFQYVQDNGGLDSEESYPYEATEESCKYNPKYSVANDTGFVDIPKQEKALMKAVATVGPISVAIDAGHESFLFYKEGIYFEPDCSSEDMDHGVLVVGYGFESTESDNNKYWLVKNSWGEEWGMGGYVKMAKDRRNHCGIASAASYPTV
Briefly: Cathepsin L assay (Z-FR-AMC fluorescence). The class given is biochemical. The following applies: 10 pM human cathepsin L, 30 mins preincubation, Z-FR-AMC 2 μM. The procedure, abridged:
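Human cathepsin L (10 pM) was preincubated 30 min with compound, then reactions were started with Z-FR-AMC substrate (2 μM final). AMC fluorescence (355/460 nm) was read every 2 min over 30 min. IC50 came from a four-parameter curve fit.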

Data set [4] has as its target T3, SARS-Cov-2 3CLpro (Severe acute respiratory syndrome coronavirus 2, UniProt P0DTD1).
T3 construct: 3CLpro and HRV3C was added using a Multidrop Combi
The experiment in a line: biochemical. The following applies: read-out: SARS-Cov-2 IC50 (class).

Data set [5] relates to human beta-coronavirus OC43. The experiment in a line: OC43 coronavirus antiviral assay in HeLa cells (cytopathic effect, cell-titer-glo). The class given is cell-based. Particulars: 6 days at 33° C., read-out: EC50 (class). A general note: Cytopathic effects are the visible damage that an infection or toxin causes in cultured cells.
The subject of data set [6] is B.1.1.7 lineage SARS-CoV-2. The experiment in a line: microbe, parasite or virus in culture. The following applies: read-out: A549-dual_ACE2_TMPRSS2 (EC50). The class given is cell-based.
Data set [7] relates to A549-dual_ACE2_TMPRSS2 cells.
For data set [8], the system named is HeLa cells. The experiment in a line: Cytotoxicity in HeLa cells without OC43 virus (cell-titer-glo). Particulars: HeLa cells without OC43 virus.
Data set [9] concerns SARS-CoV-2-GHB-03021/2020. Format: cell-based. The following applies: read-out: VeroE6 + CP (EC50).
For data set [10], the system named is Vero E6-eGFP cells. The following applies: read-out: VeroE6 + CP (CC50), absence of virus, numeric values.
The mark [11] stands for this setting: HRV3C, 30 mins preincubation, SAMDI-MS, read-out: HRV IC50 (bound).
[12] abbreviates: read-out: A549-dual_ACE2_TMPRSS2 (CC50), assay medium without virus, MTS, numeric values.

A word on the IC50: it is the midpoint of a concentration-inhibition curve. One may read the CC50 as the concentration giving 50% cytotoxicity. In general, EC50 refers to the concentration needed to bring the measured effect to its halfway point.

Where two headings read alike, the source gives them in different places.

T1 sequence (P03303 1538-1719): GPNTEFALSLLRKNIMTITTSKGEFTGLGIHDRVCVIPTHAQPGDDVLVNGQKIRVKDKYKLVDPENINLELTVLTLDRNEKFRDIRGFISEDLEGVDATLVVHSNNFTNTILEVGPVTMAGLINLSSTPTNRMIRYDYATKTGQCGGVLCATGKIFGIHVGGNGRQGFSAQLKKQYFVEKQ

In the case of `C#CC(C)(C)[C@H](NC(=O)C1(F)CC1)C(=O)N1C[C@H]2[C@@H]([C@H]1C(=O)N[C@H](C#N)C[C@@H]1CCNC1=O)[C@H]1C=C[C@@H]2C1` [Compound 63, (1R,2S,3S,6R,7S)—N-[(1S)-1-cyano-2-[(3S)-2-oxopyrrolidin-3-yl]ethyl]-4-[(2S)-2-[(1-fluorocyclopropyl)formamido]-3,3-dimethylpent-4-ynoyl]-4-azatricyclo[5.2.1.0^{2,6}]dec-8-ene-3-carboxamide], the IC50 is > 10 µM in data set [1] (setting [11]); ≥ 10 µM in data set [3]; < 0.02 µM in [4] (3CLpro, 30 mins preincubation, SAMDI-MS). The CC50 in data set [2] is > 100 µM; in data set [7] (setting [12]), > 10 µM. The EC50 in [5] and in data set [6] was < 0.1 µM each time.

With `CC(C)(C)[C@H](NC(=O)C(F)(F)F)C(=O)N1C[C@@H]2[C@H]3C[C@@H]([C@@H]2[C@H]1C(=O)N[C@H](C#N)C[C@@H]1CCNC1=O)[C@H](F)C3` [Example 86, (1S,2R,3S,6R,7S,9R)—N-[(1S)-1-cyano-2-[(3S)-2-oxopyrrolidin-3-yl]ethyl]-4-[(2S)-3,3-dimethyl-2-(2,2,2-trifluoroacetamido)butanoyl]-9-fluoro-4-azatricyclo[5.2.1.0^{2,6}]decane-3-carboxamide], the values for the CC50 in data set [8] and in data set [7] (setting [12]) were > 100 µM and > 10 µM, respectively. Also, the figures for the IC50 in data set [1] (setting [11]), in data set [3] and in data set [4] were > 0.5 µM, ≥ 10 µM and < 0.02 µM, respectively. Also, the EC50 in data set [5] and in [6] was < 0.1 µM throughout.

Turning to `C#CC(C)(C)[C@H](NC(=O)C(F)(F)F)C(=O)N1C[C@H]2[C@@H]([C@H]1C(=O)N[C@H](C#N)C[C@@H]1CCNC1=O)[C@H]1C=C[C@@H]2C1` [Example 7, (1R,2S,3S,6R,7S)—N-[(1S)-1-cyano-2-[(3S)-2-oxopyrrolidin-3-yl]ethyl]-4-[(2S)-3,3-dimethyl-2-(2,2,2-trifluoroacetamido)pent-4-ynoyl]-4-azatricyclo[5.2.1.0^{2,6}]dec-8-ene-3-carboxamide], the CC50 is > 100 µM in [8], > 50 µM in data set [10] and > 10 µM in [7] (setting [12]). Further, the IC50 is > 10 µM in data set [1] (setting [11]), ≥ 10 µM in data set [3] and < 0.02 µM in data set [4]. In addition, the EC50 in data set [5], in [9] and in data set [6] was < 0.1 µM throughout.

Take `C[C@@H](OC(C)(C)C)[C@H](NC(=O)C(F)(F)F)C(=O)N1C[C@H]2[C@@H]([C@H]1C(=O)N[C@H](C#N)C[C@@H]1CCNC1=O)[C@H]1C=C[C@@H]2C1` [Example 3, (1R,2S,3S,6R,7S)-4-[(2S,3R)-3-(tert-butoxy)-2-(2,2,2-trifluoroacetamido)butanoyl]-N-[(1S)-1-cyano-2-[(3S)-2-oxopyrrolidin-3-yl]ethyl]-4-azatricyclo[5.2.1.0^{2,6}]dec-8-ene-3-carboxamide]: the CC50 in data set [8] is > 100 µM; in data set [10], > 50 µM; in data set [7] (setting [12]), > 10 µM. The IC50 in data set [1] (setting [11]) was > 10 µM; in data set [3] it was ≥ 10 µM; in data set [4] it was < 0.02 µM. The EC50 in [5], in data set [9] and in data set [6] was < 0.1 µM throughout.

As to `CC(C)(C)[C@H](NC(=O)C(F)(F)F)C(=O)N1C[C@@H]2[C@H]3C[C@@H]([C@@H]2[C@H]1C(=O)N[C@H](C#N)C[C@@H]1CCNC1=O)C1(CC1)C3` [Compound 60, (1′S,2′R,5′S,6′S,7′S)—N-[(1S)-1-cyano-2-[(3S)-2-oxopyrrolidin-3-yl]ethyl]-4′-[(2S)-3,3-dimethyl-2-(2,2,2-trifluoroacetamido)butanoyl]-4′-azaspiro[cyclopropane-1,8′-tricyclo[5.2.1.0^{2,6}]decane]-5′-carboxamide], the figures for the CC50 in [8] and in data set [7] (setting [12]) were > 100 µM and > 10 µM, respectively. Besides, the IC50 in data set [1] (setting [11]) is > 10 µM; in [3] it was ≥ 10 µM; in [4] it was 0.02 to 0.2 µM. Also, the EC50 in data set [5] lay in the range of 1 to 10 µM; in data set [6] it was 0.1 to 1 µM.

As to `CC(C)(C)[C@H](NC(=O)C(F)(F)F)C(=O)N1C[C@H]2[C@@H]([C@H]1C(=O)N[C@H](C#N)CC1Cn3ncnc3NC1=O)[C@H]1C=C[C@@H]2C1` (stereo partly drawn) [Compound 51, (1R,2S,3S,6R,7S)—N-[(1S)-1-cyano-2-{5-oxo-4H,6H,7H-[1,2,4]triazolo[1,5-α]pyrimidin-6-yl}ethyl]-4-[(2S)-3,3-dimethyl-2-(2,2,2-trifluoroacetamido)butanoyl]-4-azatricyclo[5.2.1.0^{2,6}]dec-8-ene-3-carboxamide], the figures for the CC50 in data set [8], in data set [10] and in data set [7] (setting [12]) were > 100 µM, > 50 µM and > 10 µM, respectively. The IC50 was > 10 µM in data set [1] (setting [11]), ≥ 10 µM in data set [3] and < 0.02 µM in [4]. The EC50 in [5] fell in the range of 0.1 to 1 µM; in [6], 1 to 10 µM.

`CC(C)(C)[C@H](NC(=O)c1cnccn1)C(=O)N1C[C@H]2[C@@H]([C@H]1C(=O)N[C@H](C#N)C[C@@H]1CCNC1=O)[C@H]1C=C[C@@H]2C1` [Example 6, (1R,2S,3S,6R,7S)—N-[(1S)-1-cyano-2-[(3S)-2-oxopyrrolidin-3-yl]ethyl]-4-[(2S)-3,3-dimethyl-2-(pyrazin-2-ylformamido)butanoyl]-4-azatricyclo[5.2.1.0^{2,6}]dec-8-ene-3-carboxamide]: the IC50 in [1] (read-out: HRV IC50 (bound)) is > 10 µM; in [3] it was ≥ 10 µM; in [4], 0.02 to 0.2 µM. The CC50 is > 100 µM in [2] and > 10 µM in data set [7]. The EC50 is < 0.1 µM in data set [5], 1 to 10 µM in data set [9] and 1 to 10 µM in data set [6].

On to `C=C1C[C@@H]2C[C@H]1[C@H]1[C@@H]2CN(C(=O)[C@@H](NC(=O)C(F)(F)F)C(C)(C)C)[C@@H]1C(=O)N[C@H](C#N)C[C@@H]1CCNC1=O` [Compound 62, (1S,2S,3S,6R,7S)—N-[(1S)-1-cyano-2-[(3S)-2-oxopyrrolidin-3-yl]ethyl]-4-[(2S)-3,3-dimethyl-2-(2,2,2-trifluoroacetamido)butanoyl]-9-methylidene-4-azatricyclo[5.2.1.0^{2,6}]decane-3-carboxamide], for which the 50% cytotoxic concentration (CC50) is > 100 µM in [8] and > 10 µM in data set [7] (setting [12]). The IC50 in data set [1] (setting [11]) was > 10 µM; in data set [3] it was ≥ 10 µM; in data set [4], < 0.02 µM. The EC50 in data set [5] and in [6] was < 0.1 µM each time.

In the case of `CC(C)(C)[C@H](NC(=O)C(F)(F)F)C(=O)N1C[C@H]2[C@@H]([C@H]1C(=O)NC(C[C@@H]1CCNC1=O)C(=O)C(=O)NC1CC1)[C@H]1C=C[C@@H]2C1` (stereo partly drawn) [Example 10, N-cyclopropyl-3-{[(1R,2S,3S,6R,7S)-4-[(2S)-3,3-dimethyl-2-(2,2,2-trifluoroacetamido)butanoyl]-4-azatricyclo[5.2.1.0^{2,6}]dec-8-en-3-yl]formamido}-2-oxo-4-[(3S)-2-oxopyrrolidin-3-yl]butanamide], the CC50 is > 10 µM in [8] (read-out: CC50 (class)), > 50 µM in [10] and > 10 µM in data set [7] (setting [12]). For the same compound, the IC50 in data set [1] (HRV3C, 30 mins preincubation, SAMDI-MS, read-out: HRV IC50 (class)) is 0.02 to 0.2 µM; in [3], ≥ 10 µM; in data set [4], < 0.02 µM. The EC50 in data set [5] was in the range of 0.1 to 1 µM.

In the case of `CC(C)(C1CC1)[C@H](NC(=O)C(F)(F)F)C(=O)N1C[C@H]2[C@@H]([C@H]1C(=O)N[C@H](C#N)C[C@@H]1CCNC1=O)[C@H]1C=C[C@@H]2C1` [Compound 69, (1R,2S,3S,6R,7S)—N-[(1S)-1-cyano-2-[(3S)-2-oxopyrrolidin-3-yl]ethyl]-4-[(2S)-3-cyclopropyl-3-methyl-2-(2,2,2-trifluoroacetamido)butanoyl]-4-azatricyclo[5.2.1.0^{2,6}]dec-8-ene-3-carboxamide], the CC50 in data set [8] is > 100 µM; in data set [7] (setting [12]), > 10 µM. The IC50 in data set [1] (setting [11]) was > 10 µM; in data set [3], ≥ 10 µM; in data set [4], < 0.02 µM. In addition, the EC50 in data set [5] and in data set [6] was < 0.1 µM each time.

As for `CC(C)(C)[C@H](NC(=O)C(F)(Cl)Cl)C(=O)N1C[C@H]2[C@@H]([C@H]1C(=O)N[C@H](C#N)C[C@@H]1CCNC1=O)[C@H]1C=C[C@@H]2C1` [Compound 48, (1R,2S,3S,6R,7S)—N-[(1S)-1-cyano-2-[(3S)-2-oxopyrrolidin-3-yl]ethyl]-4-[(2S)-2-(2,2-dichloro-2-fluoroacetamido)-3,3-dimethylbutanoyl]-4-azatricyclo[5.2.1.0^{2,6}]dec-8-ene-3-carboxamide], the CC50 in data set [8] was > 100 µM; in data set [10] it was > 50 µM; in [7] (setting [12]) it was > 10 µM. Besides, the IC50 in data set [1] (setting [11]) is > 10 µM; in [3], ≥ 10 µM; in data set [4], < 0.02 µM. The EC50 in data set [5], in data set [9] and in data set [6] was < 0.1 µM throughout.
